Source: patent publication US6905861B2, “D-aminoacylases, method for producing the same, and method for producing D-amino acids using the same” (Daicel Chemical Industries, Ltd., priority 1998, dated 2005)

Legend:
[1] = test system: Hypomyces sepulcralis IFO 9102 strain; test: D-amino acid production and optical purity from N-acetyl-DL-amino acid by washed fungal cells; format: cell-based; conditions: Hypomyces sepulcralis IFO 9102 cells; 0.1% substrate, pH 7.5, 30° C., 24 hours
Description: (§1) A platinum loopful of Hypomyces rosellus IFO 6911 strain, Hypomyces sepulcralis IFO 9102 strain, or Hypomyces mycophilus IFO 6785 strain was inoculated into 25 ml of YM medium (containing 0.3% yeast extract, 0.3% malt extract, 0.5% peptone, and 2.0% glucose; pH 6.0) in a 500-ml shouldered flask. The fungi were shake-cultured at 24° C. for 3 days. After culturing, a 5-ml aliquot of the culture medium was centrifuged in a refrigerated centrifuge to collect the fungal cells. The cells were washed with physiological saline solution (5 ml), and collected by centrifugation again. A reaction solution (containing 0.1% N-acetyl-DL-amino acid shown in Table 2 below in Tris-HCl buffer, pH 7.5) was added to the cells thus collected. The mixture was incubated in a 5-ml test tube with shaking at 30° C. for 24 hours. D-Amino acid thus produced was assayed by high-performance liquid chromatography (column, CROWNPAK CR (Daicel Chemical); column temperature, 26° C.; mobile phase, HClO4 aqueous solution pH 2.0; flow rate, 1 ml/min; and detection, 200 nm) and examined for the optical purity.

[2] = test system: Hypomyces mycophilus IFO 6785 strain; test: as above; format: cell-based; conditions: Hypomyces mycophilus IFO 6785 cells; 0.1% substrate, pH 7.5, 30° C., 24 hours
Description: as §1

[3] = test system: Hypomyces rosellus IFO 6911 strain; test: as above; format: cell-based; conditions: Hypomyces rosellus IFO 6911 cells; 0.1% substrate, pH 7.5, 30° C., 24 hours
Description: as §1

[4] = test system: D-aminoacylase (crude enzyme) of Menisporopsis novaezelandiae IFO 9179; test: Crude enzyme activity for each N-Ac-D-amino acid substrate; format: biochemical; conditions: Menisporopsis novaezelandiae IFO 9179 crude enzyme; 20 mM substrate, 1 mM CoCl2, 50 mM phosphate buffer pH 7.0
Description: (§2) Auricularia auriculajudae IFO 5949, Pythium aphanidermaatum IFO 7030, and Menisporopsis novaezelandiae IFO 9179 were each inoculated into sterilized media (100 ml each) (Czapek Dox Broth for IFO 5949, YM1 medium for IFO 7030, and POTATO DEXTROSE BROTH for IFO 9179) in 500-ml Erlenmeyer flasks. The fungi were cultured on a rotary shaker at 210 rpm at 24° C. for 7 days and collected by centrifugation using a […] centrifuge with a RPR10-2 rotor at 8,000 rpm (12,500×g) for 20 min. […] Disrupted cells thus obtained were centrifuged using a […] centrifuge with a RPR20-2 rotor at 17,500 rpm (38,000×g) for 30 min at 4° C. to obtain the supernatant as the crude enzyme. […] Figures in the table denote the amount (mM) of D-amino acids produced from the corresponding N-acetyl-D-amino acids. The D-aminoacylase activity was detected in all the strains tested, producing D-amino acid from the corresponding N-acetyl-D-amino acid.

[5] = test system: D-aminoacylase (crude enzyme) of Auricularia auriculajudae IFO 5949; test: as above; format: biochemical; conditions: Auricularia auriculajudae IFO 5949 crude enzyme; 20 mM substrate, 1 mM CoCl2, 50 mM phosphate buffer pH 7.0
Description: as §2

[6] = test system: D-aminoacylase (crude enzyme) of Pythium aphanidermaatum IFO 7030; test: as above; format: biochemical; conditions: Pythium aphanidermaatum IFO 7030 crude enzyme; 20 mM substrate, 1 mM CoCl2, 50 mM phosphate buffer pH 7.0
Description: as §2

D-aminoacylase = test: Substrate specificity of purified D-aminoacylase (TNBS method); format: biochemical, Hypomyces mycophilus IFO 6785; conditions: for percentage of the specific activity compared with that for N-acetyl-D-methionine taken as 100%, D-enantiomer: 20 mM substrate, 50 mM Tris-HCl pH 7.5, 30° C., 20 min; for activity of the enzyme for the substrate (in words): summary of Table 5
Description: The enzyme activity was assayed by determining the amount of amino acid produced using the TNBS method and the HPLC method. In the TMBS method, 100 mM Na2B4O7 (0.5 ml) was added to a sample solution containing amino acid (0.5 ml), 20 μl of 110 mM TNBS (trinitrobenzenesulfonic acid) was then added, and the resulting mixture was quickly stirred. After 5 min, 100 mM NaH2PO4 containing 1.5 mM Na2SO3 (2 ml) was added to the reaction mixture to terminate the color reaction, and the absorbance at 420 nm was measured. HPLC was performed by subjecting a sample solution containing amino acid to high-performance liquid chromatography using an ODS column (column, Wakosil II 5C18 (4.6 dia.×250 mm) (Wako Pure Chemical); eluent, CH3CN/50 mM KH2PO4. H3PO4 (pH 2.5)=2:8; detection, A280 nm; and flow rate, 1.0 ml/min). The retention times were 3.5 min for D-tryptophan and 9.8 min for N-acetyl-D-tryptophan. Using D-tryptophan as the assay standard, one unit (or U) of the enzyme was defined as the amount of the enzyme required to produce 1 μmol of D-tryptophan at 30° C. for 1 min.
Substrate specificity of the enzyme was expressed as the percentage of the specific activity compared with that for N-acetyl-D-methionine taken as 100%. N-chloroacetyl-D-phenylalanine, N-acetyl-D-valine, N-acetyl-D-phenylalanine, N-acetyl-D-tryptophan, N-acetyl-D-leucine, N-acetyl-L-valine, N-acetyl-L-phenylalanine, N-acetyl-L-tryptophan, and N-acetyl-L-leucine substrates were used for the comparison. The enzyme reaction was performed in 50 mM Tris-HCl (pH 7.5) containing 1 µl of the enzyme solution and 20 mM of each substrate (total volume 1.0 ml) at 30° C. for 20 min, and terminated by adding 0.5 ml of a TCA reaction terminating solution according to Tsai et al. (consisting of 110 mM trichloroacetic acid, 220 mM sodium acetate, and 330 mM acetic acid). The enzyme activity was assayed by the TNBS method as described in Example 4(2).

[7] = test system: Hypomyces sepulcralis IFO 9102 strain; test: D-amino acid production from N-acetyl-D-amino acid by washed fungal cells; format: cell-based; conditions: Hypomyces sepulcralis IFO 9102 cells; 0.1% substrate, Tris-HCl pH 7.5, 30° C., 24 hours
Description: (§3) A platinum loopful of Hypomyces aurantius IFO 6847 strain, Hypomyces broomeanus IFO 9164 strain, Hypomyces rosellus IFO 6911 strain, Hypomyces chrysospermus IFO 6817 strain, Hypomyces sepulcralis IFO 9102 strain, Hypomyces subiculosus IFO 6892 strain, Hypomyces mycophilus ATCC 76474 or IFO 6785 strain, or Fusarium solani IFO 9974 or IFO 9975 strain was inoculated into 25 ml of YM medium (containing 0.3% yeast extract, 0.3% malt extract, 0.5% peptone, and 2.0% glucose, pH 6.0) in a 500-ml shouldered flask. The fungi were shake-cultured at 24° C. for 3 days. After culturing, a 5-ml aliquot of the culture medium was centrifuged in a refrigerated centrifuge to collect the fungal cells. The cells were washed with physiological saline solution (5 ml) and collected by centrifugation again. A reaction solution (containing 0.1% N-acetyl-D-amino acid shown in Table 1 below in Tris-HCl buffer, pH 7.5) was then added to the cells thus collected. The mixture was incubated in a 5-ml test tube with shaking at 30° C. for 24 hours.
(§4) D-Amino acid thus produced was determined by high-performance liquid chromatography (column, CROWNPAK CR (Daicel Chemical); column temperature, 26° C.; cooled in ice for only valine; mobile phase, HClO4 aqueous solution, pH 2.0; flow rate, 1 ml/min; and detection, 200 nm).

[8] = test system: Hypomyces aurantius IFO 6847 strain; test: as above; format: cell-based; conditions: Hypomyces aurantius IFO 6847 cells; 0.1% substrate, Tris-HCl pH 7.5, 30° C., 24 hours
Description: as §3, §4

[9] = test system: Hypomyces subiculosus IFO 6892 strain; test: as above; format: cell-based; conditions: Hypomyces subiculosus IFO 6892 cells; 0.1% substrate, Tris-HCl pH 7.5, 30° C., 24 hours
Description: as §3, §4

[10] = test system: Fusarium solani IFO 9975 strain; test: as above; format: cell-based; conditions: Fusarium solani IFO 9975 cells; 0.1% substrate, Tris-HCl pH 7.5, 30° C., 24 hours
Description: as §3, §4

[11] = test system: Hypomyces chrysospermus IFO 6817 strain; test: as above; format: cell-based; conditions: Hypomyces chrysospermus IFO 6817 cells; 0.1% substrate, Tris-HCl pH 7.5, 30° C., 24 hours
Description: as §3, §4

[12] = test system: Hypomyces mycophilus IFO 6785 strain; test: as above; format: cell-based; conditions: Hypomyces mycophilus IFO 6785 cells; 0.1% substrate, Tris-HCl pH 7.5, 30° C., 24 hours
Description: as §3, §4

Fusarium solani IFO 9974 = test: as above; format: cell-based; conditions: Fusarium solani IFO 9974 cells; 0.1% substrate, Tris-HCl pH 7.5, 30° C., 24 hours
Description: as §3, §4

[13] = test system: Hypomyces mycophilus ATCC 76474; test: as above; format: cell-based; conditions: Hypomyces mycophilus ATCC 76474 cells; 0.1% substrate, Tris-HCl pH 7.5, 30° C., 24 hours
Description: as §3, §4

[14] = test system: Hypomyces rosellus IFO 6911 strain; test: as above; format: cell-based; conditions: Hypomyces rosellus IFO 6911 cells; 0.1% substrate, Tris-HCl pH 7.5, 30° C., 24 hours
Description: as §3, §4

[15] = test system: Hypomyces broomeanus IFO 9164 strain; test: as above; format: cell-based; conditions: Hypomyces broomeanus IFO 9164 cells; 0.1% substrate, Tris-HCl pH 7.5, 30° C., 24 hours
Description: as §3, §4

| Structure (SMILES) | D-amino acid produced from N-acetyl-DL-amino acid [1] [mg/mL] | D-amino acid produced from N-acetyl-DL-amino acid [2] [mg/mL] | D-amino acid produced from N-acetyl-DL-amino acid [3] [mg/mL] | amount of D-amino acids produced from the corresponding N-acetyl-D-amino acids [4] [mM] | amount of D-amino acids produced from the corresponding N-acetyl-D-amino acids [5] [mM] | amount of D-amino acids produced from the corresponding N-acetyl-D-amino acids [6] [mM] | percentage of the specific activity compared with that for N-acetyl-D-methionine taken as 100%, D-enantiomer (D-aminoacylase) [%] | D-amino acid produced from N-acetyl-D-amino acid [7] [mg/mL] | D-amino acid produced from N-acetyl-D-amino acid [8] [mg/mL] | D-amino acid produced from N-acetyl-D-amino acid [9] [mg/mL] | D-amino acid produced from N-acetyl-D-amino acid [10] [mg/mL] | D-amino acid produced from N-acetyl-D-amino acid [11] [mg/mL] | D-amino acid produced from N-acetyl-D-amino acid [12] [mg/mL] | D-amino acid produced from N-acetyl-D-amino acid (Fusarium solani IFO 9974) [mg/mL] | D-amino acid produced from N-acetyl-D-amino acid [13] [mg/mL] | D-amino acid produced from N-acetyl-D-amino acid [14] [mg/mL] | D-amino acid produced from N-acetyl-D-amino acid [15] [mg/mL] | activity of the enzyme for the substrate (in words) (D-aminoacylase) |
| --- | --- | --- | --- | --- | --- | --- | --- | --- | --- | --- | --- | --- | --- | --- | --- | --- | --- | --- |
| CC(=O)NC(Cc1ccccc1)C(=O)O (racemic) [N-acetyl-DL-phenylalanine] | 0.12 | 0.16 | 0.21 |  |  |  |  |  |  |  |  |  |  |  |  |  |  |  |
| CC(=O)NC(Cc1c[nH]c2ccccc12)C(=O)O (racemic) [N-acetyl-DL-tryptophan] | 0.13 | 0.10 | 0.24 |  |  |  |  |  |  |  |  |  |  |  |  |  |  |  |
| CC(=O)N[C@H](C)C(=O)O [N-acetyl-D-alanine, N-Acetyl-D-alanine] |  |  |  | 0.09 | 1.46 | 0.29 | 0 |  |  |  |  |  |  |  |  |  |  |  |
| CC(=O)N[C@H](Cc1ccccc1)C(=O)O [N-acetyl-D-phenylalanine] |  |  |  | 0.44 | 4.34 |  | 298 | 0.15 | 0.005 | 0.05 | 0.002 | 0.003 | 0.65 | 0.001 | 0.003 | 0.06 | 0.004 | especially active |
| CC(=O)N[C@H](Cc1c[nH]c2ccccc12)C(=O)O [N-acetyl-D-tryptophan] |  |  |  | 1.30 | 2.44 |  | 109 | 0.01 | 0.008 | 0.002 | 0.001 | 0.001 | 0.40 | 0 | 0.27 | 0.08 | 0.002 | very active |
| CC(=O)N[C@@H](C(=O)O)C(C)C [N-acetyl-D-valine] |  |  |  | 0.16 | 3.33 |  | 17.5 | 3.19 | 0.14 | 0.23 | 0.22 | 3.16 | 0.98 | 0 | 0.11 | 2.73 | 0.18 | somewhat active |
